In ChEMBL document CHEMBL2407072 (Eur J Med Chem, 2013):

Legend:
[1] = target: Carbonic anhydrase 9 (Homo sapiens, UniProt Q16790); assay: Inhibition of human recombinant CA9 using 4-nitrophenylacetate as substrate preincubated for 15 mins by stopped-flow CO2 hydration assay
[2] = test system: B16-F10; assay: cells; settings: Mus musculus, B16-F10, 48 h
Description: Cytotoxicity against mouse B16F10 cells after 48 hrs by CCK8 assay

[3] = test system: MCF7; settings: Homo sapiens, MCF7, 48 h
[4] = Cytotoxicity against human macrophages assessed as microscopically detectable alteration of normal cell morphology after 48 hrs […]; format: cell-based; settings: macrophage
[5] = test system: A549; assay: Induction of apoptosis in human A549 cells assessed as late apoptotic cells at 2.5 ug/ml after 48 hrs using propidium iodide staining by FACS assay; format: functional
[6] = test system: A549; assay: Induction of apoptosis in human A549 cells assessed as early apoptotic cells at 40 ug/ml after 48 hrs using propidium iodide staining by FACS assay; format: functional
[7] = test system: A549; assay: Induction of apoptosis in human A549 cells assessed as early apoptotic cells at 160 ug/ml after 48 hrs using propidium iodide staining by FACS assay; format: functional
[8] = test system: A549; assay: Induction of apoptosis in human A549 cells assessed as necrotic cells at 160 ug/ml after 48 hrs using propidium iodide staining by FACS assay; format: functional
[9] = test system: A549; assay: Induction of apoptosis in human A549 cells assessed as viable cells at 10 ug/ml after 48 hrs using propidium iodide staining by FACS assay; format: functional; settings: A549, 48 h, read-out: Activity
[10] = test system: A549; assay: Induction of apoptosis in human A549 cells assessed as late apoptotic cells at 160 ug/ml after 48 hrs using propidium iodide staining by FACS assay; format: functional
[11] = test system: A549; assay: Induction of apoptosis in human A549 cells assessed as necrotic cells at 2.5 ug/ml after 48 hrs using propidium iodide staining by FACS assay; format: functional
[12] = test system: A549; assay: Induction of apoptosis in human A549 cells assessed as viable cells at 40 ug/ml after 48 hrs using propidium iodide staining by FACS assay; format: functional; settings: A549, 48 h, read-out: Activity
[13] = test system: A549; assay: Induction of apoptosis in human A549 cells assessed as viable cells at 2.5 ug/ml after 48 hrs using propidium iodide staining by FACS assay; format: functional; settings: A549, 48 h, read-out: Activity
[14] = test system: A549; assay: Induction of apoptosis in human A549 cells assessed as necrotic cells at 10 ug/ml after 48 hrs using propidium iodide staining by FACS assay; format: functional
[15] = test system: A549; assay: Induction of apoptosis in human A549 cells assessed as viable cells at 160 ug/ml after 48 hrs using propidium iodide staining by FACS assay; format: functional; settings: A549, 48 h, read-out: Activity
[16] = test system: A549; assay: Induction of apoptosis in human A549 cells assessed as late apoptotic cells at 10 ug/ml after 48 hrs using propidium iodide staining by FACS assay; format: functional
[17] = test system: A549; assay: Induction of apoptosis in human A549 cells assessed as early apoptotic cells at 10 ug/ml after 48 hrs using propidium iodide staining by FACS assay; format: functional
[18] = test system: A549; assay: Induction of apoptosis in human A549 cells assessed as early apoptotic cells at 2.5 ug/ml after 48 hrs using propidium iodide staining by FACS assay; format: functional
[19] = test system: A549; assay: Induction of apoptosis in human A549 cells assessed as necrotic cells at 40 ug/ml after 48 hrs using propidium iodide staining by FACS assay; format: functional
[20] = test system: A549; assay: Induction of apoptosis in human A549 cells assessed as late apoptotic cells at 40 ug/ml after 48 hrs using propidium iodide staining by FACS assay; format: functional

Row | SMILES | IC50 [1] [nM] | IC50 [2] [nM] | IC50 [3] [nM] | MCC [4] [µmol] | other results
1 | O=c1oc2ccccc2c(Cl)c1/C=N/c1ccc(S(=O)(=O)Nc2nccs2)cc1 | 138 | 300 | 160 |  | 
2 | Cc1ccc2oc(=O)c(/C=N/c3ccc(S(=O)(=O)Nc4nccs4)cc3)c(Cl)c2c1 | 87 | 280 | 33 |  | 
3 | NS(=O)(=O)c1ccc(/N=C/c2c(Cl)c3ccccc3oc2=O)cc1 | 91 | 300 | 120 | 0.58 | 
4 | Cc1ccc2oc(=O)c(/C=N/c3ccc(S(N)(=O)=O)cc3)c(Cl)c2c1 | 85 | 360 | 270 | 1.2 | 
5 | Cc1cc(NS(=O)(=O)c2ccc(/N=C/c3c(Cl)c4cc(C(C)(C)C)cc(C(C)(C)C)c4oc3=O)cc2)no1 | 43 | 240 | 64 |  | 
6 | Cc1cc(C)nc(NS(=O)(=O)c2ccc(/N=C/c3c(Cl)c4cc(C(C)(C)C)cc(C(C)(C)C)c4oc3=O)cc2)n1 | 90 | 220 | 8.8 | 0.73 | 
7 | Cc1ccc2oc(=O)c(/C=N/c3ccc(S(=O)(=O)NC(=N)N)cc3)c(Cl)c2c1 | 50 | 240 | 67 |  | 
8 | CC(C)(C)c1cc(C(C)(C)C)c2oc(=O)c(/C=N/c3ccc(S(=O)(=O)Nc4nccs4)cc3)c(Cl)c2c1 | 51 | 160 | 12 |  | 
9 | Cc1cc(C)nc(NS(=O)(=O)c2ccc(/N=C/c3c(Cl)c4ccccc4oc3=O)cc2)n1 | 124 | 170 | 20 |  | Activity [5]: 19.6%; Activity [6]: 6.54%; Activity [7]: 9.24%; Activity [8]: 8.99%; viability at 10 µg/mL [9]: 81.2%; Activity [10]: 9.62%; Activity [11]: 4.14%; viability at 40 µg/mL [12]: 85.1%; viability at 2.5 µg/mL [13]: 69.4%; Activity [14]: 1.58%; viability at 160 µg/mL [15]: 72.2%; Activity [16]: 12.1%; Activity [17]: 5.09%; Activity [18]: 6.8%; Activity [19]: 2.04%; Activity [20]: 6.28%
10 | CC(C)(C)c1cc(C(C)(C)C)c2oc(=O)c(/C=N/c3ccc(S(=O)(=O)NC(=N)N)cc3)c(Cl)c2c1 | 74 | 250 | 18 |  | 
11 | COc1cccc2c1C(=O)c1c(O)c3c(c(O)c1C2=O)C[C@@](O)(C(=O)CO)C[C@@H]3O[C@H]1C[C@H](N)[C@H](O)[C@H](C)O1 [DOXORUBICIN] |  | 72 |  |  | 
12 | Cc1cc(NS(=O)(=O)c2ccc(/N=C/c3c(Cl)c4ccccc4oc3=O)cc2)no1 | 141 | 270 | 12 | 0.42 | 
13 | Cc1ccc2oc(=O)c(/C=N/c3ccc(S(=O)(=O)Nc4cc(C)on4)cc3)c(Cl)c2c1 | 52 | 250 | 16 |  | 
14 | N=C(N)NS(=O)(=O)c1ccc(/N=C/c2c(Cl)c3ccccc3oc2=O)cc1 | 188 | 180 | 58 | 0.62 | 
15 | CC(C)(C)c1cc(C(C)(C)C)c2oc(=O)c(/C=N/c3ccc(S(N)(=O)=O)cc3)c(Cl)c2c1 | 34 | 240 | 16 | 0.58 | 
16 | Cc1ccc2oc(=O)c(/C=N/c3ccc(S(=O)(=O)Nc4nc(C)cc(C)n4)cc3)c(Cl)c2c1 | 67 | 300 | 25 |  | 
17 | Cc1ccnc(NS(=O)(=O)c2ccc(/N=C/c3c(Cl)c4ccccc4oc3=O)cc2)n1 | 84 | 230 | 31 |  | 
18 | Cc1ccnc(NS(=O)(=O)c2ccc(/N=C/c3c(Cl)c4cc(C(C)(C)C)cc(C(C)(C)C)c4oc3=O)cc2)n1 | 24 | 190 | 32 | 0.36 | 
19 | Cc1ccc2oc(=O)c(/C=N/c3ccc(S(=O)(=O)Nc4nccc(C)n4)cc3)c(Cl)c2c1 | 48 | 270 | 61 | 0.56 | 
